How the values were obtained:
[1] = test system: Radical scavenging activity; test: Antioxidant activity assessed as inhibition of DPPH free radicals at 400 uM after 30 min by microplate reader analysis relative to control; format: functional
HCT-116 = test: Cytotoxicity against Homo sapiens (human) HCT116 cells assessed as growth inhibition after 48 hr by MTT assay; format: functional, cell-based; settings: for IC50: HCT-116, 48 h

O=C(O)c1cc(O)c(O)c(O)c1
inhibition [1]: 77.7%

c1ccc2[nH]cnc2c1 [BENZIMIDAZOLE]
inhibition [1]: 21%
growth inhibition (GI) (HCT-116): Dose-dependent effect
IC50 (HCT-116): > 200 µM

CCCCCCCCn1c[n+](Cc2ccc(C[n+]3cn(CCCCCCCC)c4ccccc43)cc2)c2ccccc21
inhibition [1]: 17.9%
growth inhibition (GI) (HCT-116): Dose-dependent effect
IC50 (HCT-116): 0.9 µM

CCCCCCCCCCn1c[n+](Cc2ccc(C[n+]3cn(CCCCCCCCCC)c4ccccc43)cc2)c2ccccc21
inhibition [1]: 13.7%
growth inhibition (GI) (HCT-116): Dose-dependent effect
IC50 (HCT-116): 3.3 µM

O=c1[nH]cc(F)c(=O)[nH]1 [FLUOROURACIL]
growth inhibition (GI) (HCT-116): Dose-dependent effect
IC50 (HCT-116): 19.2 µM

CCCCCCCCCn1c[n+](Cc2ccc(C[n+]3cn(CCCCCCCCC)c4ccccc43)cc2)c2ccccc21
inhibition [1]: 14.8%
growth inhibition (GI) (HCT-116): Dose-dependent effect
IC50 (HCT-116): 2.8 µM

Reference: ChEMBL document CHEMBL3046173, “Synthesis, structure, anticancer, and antioxidant activity of para-xylyl linked bis-benzimidazolium salts and respective dinuclear Ag(I) N-heterocyclic carbene complexes (Part-II)” (Med Chem Res, 2013)
